Measurements as given in patent US6737383B1, “Herbicidal oxadiazolidines” (priority 1999, dated 2004).

Experiments:
[1] = system: blackgrass; experiment: Test B pre/postemergence blackgrass; type: in vivo, Alopecurus myosuroides
Procedure, shortened: (§1)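 Test chemicals in a non-phytotoxic solvent mixture with surfactant were sprayed preemergence onto planted seeds and postemergence onto plants 2 to 18 cm tall (1- to 4-leaf stage). After twelve to sixteen days in a greenhouse, injury was visually rated against untreated controls from 0 (no effect) to 10 (complete control).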

[2] = system: giant foxtail; experiment: Test B pre/postemergence giant foxtail; type: in vivo, Setaria faberii
Procedure, shortened: as §1

[3] = system: soybean; experiment: Test B pre/postemergence soybean; type: in vivo, Glycine max
Procedure, shortened: as §1

[4] = system: bedstraw; experiment: Test B pre/postemergence bedstraw; type: in vivo, Galium aparine
Procedure, shortened: as §1

[5] = system: pigweed; experiment: Test B pre/postemergence pigweed; type: in vivo, Amaranthus retroflexus
Procedure, shortened: as §1

[6] = system: cocklebur; experiment: Test B pre/postemergence cocklebur; type: in vivo, Xanthium strumarium
Procedure, shortened: as §1

[7] = system: velvetleaf; experiment: Test B pre/postemergence velvetleaf; type: in vivo, Abutilon theophrasti
Procedure, shortened: as §1

[8] = system: rape; experiment: Test B pre/postemergence rape; type: in vivo, Brassica napus
Procedure, shortened: as §1

[9] = system: morningglory; experiment: Test B pre/postemergence morningglory; type: in vivo, Ipomoea hederacea
Procedure, shortened: as §1

[10] = system: sugar beet; experiment: Test B pre/postemergence sugar beet; type: in vivo, Beta vulgaris
Procedure, shortened: as §1

[11] = system: bamyardgrass; experiment: Test B flood test barnyardgrass; type: in vivo, Echinochloa crus-galli
Procedure, shortened: (§2)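 Plants were grown to the 2-leaf stage before treatment with test chemical, then held in a greenhouse for twelve to sixteen days. Injury was visually rated against untreated controls on a 0–10 scale, where 0 is no effect and 10 is complete control.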

[12] = system: corn; experiment: Test B pre/postemergence corn; type: in vivo, Zea mays
Procedure, shortened: as §1

[13] = system: surinam grass; experiment: Test B pre/postemergence surinam grass; type: in vivo, Brachiaria decumbens
Procedure, shortened: as §1

[14] = system: smallflower flatsedge; experiment: Test B flood test smallflower flatsedge; type: in vivo, Cyperus difformis
Procedure, shortened: as §2

[15] = system: duck salad; experiment: Test B flood test duck salad; type: in vivo, Heteranthera limosa
Procedure, shortened: as §2

[16] = system: purple nutsedge; experiment: Test B pre/postemergence purple nutsedge; type: in vivo, Cyperus rotundus
Procedure, shortened: as §1

[17] = Preemergence, Rate 31 g/ha, visual rating, scale 0 to 10 (0 no effect, 10 complete control)
[18] = Preemergence, Rate 62 g/ha, scale of 0 to 10 where 0 is no effect and 10 is complete control
[19] = Preemergence, Rate 250 g/ha, scale of 0 to 10 where 0 is no effect and 10 is complete control
[20] = Rate 31 g/ha, Postemergence, scale 0 to 10
[21] = Rate 62 g/ha, Postemergence, scale of 0 to 10 where 0 is no effect and 10 is complete control
[22] = Rate 125 g/ha, Postemergence, scale 0 to 10
[23] = Rate 125 g/ha, Preemergence, scale of 0 to 10 where 0 is no effect and 10 is complete control
[24] = Rate 31 g/ha, Pre-emergence section (flood test species), scale 0 to 10
[25] = Rate 62 g/ha, headed Pre-emergence (flood test species), scale 0 to 10 (0 no effect, 10 complete control)
[26] = Rate 125 g/ha, Pre-emergence, flood test species, scale 0 to 10 where 0 is no effect and 10 is complete control
[27] = Rate 250 g/ha, Pre-emergence, flood-test species, scale 0 to 10, 0 is no effect, 10 is complete control

Structure (SMILES): CC(=O)Cn1c(=O)on(C(=O)N(c2ccc(F)cc2)C(C)C)c1=O [Compound 217]
- Blackgrass plant response rating [1, 17]: 0
- Blackgrass plant response rating [1, 18]: 6
- Blackgrass plant response rating [1, 19]: 8
- Blackgrass plant response rating [1, 20]: 0
- Blackgrass plant response rating [1, 21]: 3
- Blackgrass plant response rating [1, 22]: 6
- Blackgrass plant response rating [1, 23]: 6
- Plant response rating (0 to 10; 0 is no effect, 10 is complete control), Blackgrass ([1]; Rate 250 g/ha, Postemergence): 6
- Giant foxtail plant response rating [2, 17]: 3
- Giant foxtail plant response rating [2, 18]: 6
- Giant foxtail plant response rating [2, 19]: 10
- Giant foxtail plant response rating [2, 20]: 0
- Giant foxtail plant response rating [2, 21]: 1
- Giant foxtail plant response rating [2, 22]: 2
- Giant foxtail plant response rating [2, 23]: 8
- Plant response rating (0 to 10; 0 is no effect, 10 is complete control), Giant foxtail ([2]; Rate 250 g/ha, Postemergence): 7
- Soybean plant response rating [3, 17]: 0
- Soybean plant response rating [3, 18]: 0
- Soybean plant response rating [3, 19]: 0
- Soybean plant response rating [3, 21]: 1
- Soybean plant response rating [3, 22]: 1
- Soybean plant response rating [3, 23]: 0
- Plant response rating (0 to 10; 0 is no effect, 10 is complete control), Soybean ([3]; Rate 250 g/ha, Postemergence): 1
- Bedstraw plant response rating [4, 17]: 0
- Bedstraw plant response rating [4, 18]: 0
- Bedstraw plant response rating [4, 19]: 0
- Bedstraw plant response rating [4, 20]: 0
- Bedstraw plant response rating [4, 21]: 0
- Bedstraw plant response rating [4, 22]: 0
- Bedstraw plant response rating [4, 23]: 0
- Plant response rating (0 to 10; 0 is no effect, 10 is complete control), Bedstraw ([4]; Rate 250 g/ha, Postemergence): 0
- Redroot pigweed plant response rating [5, 17]: 0
- Redroot pigweed plant response rating [5, 18]: 0
- Redroot pigweed plant response rating [5, 19]: 10
- Redroot pigweed plant response rating [5, 20]: 0
- Redroot pigweed plant response rating [5, 21]: 0
- Redroot pigweed plant response rating [5, 22]: 0
- Redroot pigweed plant response rating [5, 23]: 5
- Plant response rating (0 to 10; 0 is no effect, 10 is complete control), Redroot pigweed ([5]; Rate 250 g/ha, Postemergence): 0
- Cocklebur plant response rating [6, 17]: 0
- Cocklebur plant response rating [6, 18]: 0
- Cocklebur plant response rating [6, 19]: 0
- Cocklebur plant response rating [6, 20]: 0
- Cocklebur plant response rating [6, 21]: 0
- Cocklebur plant response rating [6, 22]: 0
- Cocklebur plant response rating [6, 23]: 0
- Plant response rating (0 to 10; 0 is no effect, 10 is complete control), Cocklebur ([6]; Rate 250 g/ha, Postemergence): 0
- Velvetleaf plant response rating [7, 17]: 0
- Velvetleaf plant response rating [7, 18]: 0
- Velvetleaf plant response rating [7, 19]: 5
- Velvetleaf plant response rating [7, 21]: 0
- Velvetleaf plant response rating [7, 22]: 0
- Velvetleaf plant response rating [7, 23]: 1
- Plant response rating (0 to 10; 0 is no effect, 10 is complete control), Velvetleaf ([7]; Rate 250 g/ha, Postemergence): 0
- Rape plant response rating [8, 17]: 0
- Rape plant response rating [8, 18]: 0
- Rape plant response rating [8, 19]: 4
- Rape plant response rating [8, 20]: 0
- Rape plant response rating [8, 21]: 0
- Rape plant response rating [8, 22]: 0
- Rape plant response rating [8, 23]: 0
- Plant response rating (0 to 10; 0 is no effect, 10 is complete control), Rape ([8]; Rate 250 g/ha, Postemergence): 0
- Morningglory plant response rating [9, 17]: 0
- Morningglory plant response rating [9, 18]: 0
- Morningglory plant response rating [9, 19]: 0
- Morningglory plant response rating [9, 20]: 0
- Morningglory plant response rating [9, 21]: 0
- Morningglory plant response rating [9, 22]: 0
- Morningglory plant response rating [9, 23]: 0
- Plant response rating (0 to 10; 0 is no effect, 10 is complete control), Morningglory ([9]; Rate 250 g/ha, Postemergence): 0
- Sugarbeets plant response rating [10, 17]: 0
- Sugarbeets plant response rating [10, 18]: 0
- Sugarbeets plant response rating [10, 19]: 0
- Sugarbeets plant response rating [10, 21]: 0
- Sugarbeets plant response rating [10, 22]: 0
- Sugarbeets plant response rating [10, 23]: 0
- Plant response rating (0 to 10; 0 is no effect, 10 is complete control), Sugarbeets ([10]; Rate 250 g/ha, Postemergence): 0
- Barnyardgrass plant response rating [11, 24]: 0
- Barnyardgrass plant response rating [11, 25]: 0
- Barnyardgrass plant response rating [11, 26]: 0
- Barnyardgrass plant response rating [11, 27]: 0
- Corn plant response rating [12, 17]: 0
- Corn plant response rating [12, 18]: 0
- Corn plant response rating [12, 19]: 0
- Corn plant response rating [12, 20]: 0
- Corn plant response rating [12, 21]: 0
- Corn plant response rating [12, 22]: 0
- Corn plant response rating [12, 23]: 0
- Plant response rating (0 to 10; 0 is no effect, 10 is complete control), Corn ([12]; Rate 250 g/ha, Postemergence): 0
- B. signalgrass plant response rating [13, 17]: 0
- B. signalgrass plant response rating [13, 18]: 0
- B. signalgrass plant response rating ([13]; Preemergence, Rate 250 g/ha, scale 0 to 10, 0 is no effect, 10 is complete control): 0
- B. signalgrass plant response rating [13, 20]: 0
- B. signalgrass plant response rating [13, 21]: 0
- B. signalgrass plant response rating ([13]; Rate 125 g/ha, Postemergence, scale 0 (no effect) to 10 (complete control)): 7
- B. signalgrass plant response rating [13, 23]: 0
- Plant response rating (0 to 10; 0 is no effect, 10 is complete control), B. signalgrass ([13]; Rate 250 g/ha, Postemergence): 7
- S. Flatsedge plant response rating [14, 24]: 0
- S. Flatsedge plant response rating [14, 25]: 0
- S. Flatsedge plant response rating [14, 26]: 0
- S. Flatsedge plant response rating [14, 27]: 0
- Ducksalad plant response rating [15, 24]: 0
- Ducksalad plant response rating [15, 25]: 0
- Ducksalad plant response rating [15, 26]: 0
- Ducksalad plant response rating [15, 27]: 0
- Nutsedge plant response rating [16, 17]: 0
- Nutsedge plant response rating [16, 18]: 0
- Nutsedge plant response rating [16, 19]: 0
- Nutsedge plant response rating [16, 20]: 0
- Nutsedge plant response rating [16, 21]: 0
- Nutsedge plant response rating [16, 22]: 0
- Nutsedge plant response rating [16, 23]: 0
- Plant response rating (0 to 10; 0 is no effect, 10 is complete control), Nutsedge ([16]; Rate 250 g/ha, Postemergence): 0
